The text below walks through data of US12662494B2, “Optically active bridged piperidine derivative” (Sumitomo Pharma Co., Ltd., priority 2018, dated 2026).

Like-named read-outs stand apart in the source and are kept apart here.

The target of data set [1] is T1, Menin-MLL binding (His-Menin1-615 and MLL1-172-FLAG) (Homo sapiens, UniProt O00255).
T1 construct: Menin1-615 wherein 6× His tag and HA tag are inserted in the N-terminus; HA (N); myc (C)
T1 sequence (O00255 1-615 isoform O00255-1): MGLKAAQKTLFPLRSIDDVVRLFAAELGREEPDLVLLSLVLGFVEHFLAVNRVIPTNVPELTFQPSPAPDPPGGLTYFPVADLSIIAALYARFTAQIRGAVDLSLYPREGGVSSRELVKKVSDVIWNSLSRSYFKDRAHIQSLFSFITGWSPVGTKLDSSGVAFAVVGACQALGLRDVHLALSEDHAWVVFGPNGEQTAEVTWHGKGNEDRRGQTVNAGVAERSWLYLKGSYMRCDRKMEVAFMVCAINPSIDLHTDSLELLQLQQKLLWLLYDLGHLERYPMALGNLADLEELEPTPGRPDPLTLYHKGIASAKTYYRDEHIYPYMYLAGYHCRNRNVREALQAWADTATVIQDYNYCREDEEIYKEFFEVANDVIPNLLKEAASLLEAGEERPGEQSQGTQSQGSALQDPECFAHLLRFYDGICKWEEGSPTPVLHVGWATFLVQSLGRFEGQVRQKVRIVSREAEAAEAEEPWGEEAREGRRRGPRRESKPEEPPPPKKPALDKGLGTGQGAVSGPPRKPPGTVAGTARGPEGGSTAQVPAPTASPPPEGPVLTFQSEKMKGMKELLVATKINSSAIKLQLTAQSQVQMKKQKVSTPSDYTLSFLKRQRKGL
In words: Test 1: inhibition of the menin-MLL binding (HTRF). The following applies: for IC50: His-Menin1-615 30 nmol/L, MLL1-172-FLAG 50 nmol/L; for menin-MLL binding inhibition activity (in words): summary of Test 1 table. As for the experimental part:
Test 1: Test for Evaluating the Inhibition of the Menin-MLL Binding
Menin1-615 wherein 6× His tag and HA tag are inserted in the N-terminus, and myc tag is inserted in the C-terminus (hereinafter, referred to as His-Menin1-615), was diluted with an assay buffer (25 mmol/L HEPES, 150 mmol/L NaCl, 1 mmol/L dithiothreitol, 0.5% (w/v) Tween 80, 0.3% (w/v) BSA, 0.3% (w/v) skim milk) to adjust the final concentration to 30 nmol/L. The test compounds were also diluted with the assay buffer to adjust each concentration of the test compounds to 0.005 to 5 μmol/L. The prepared His-Menin1-615 and test compounds were added to a light-shielding 384-well low-volume plate (Corning, #4514) in 2 μL/well and […], respectively, and the plate was covered with a lid for light-shielding (Corning, #3935), and incubated at room temperature for 3 hours. After the incubation, MLL1-172 wherein FLAG tag is inserted in the C-terminus (MLL1-172-FLAG), was separately diluted with the assay buffer to adjust the final concentration to 50 nmol/L. The prepared MLL1-172-FLAG was added to the above plate in 2 μL/well, and the plate was covered with a lid for light-shielding and incubated at room temperature for an hour.
Then, anti-6HIS-d2 antibody (cisbio, 61HISDLA) and anti-FLAGM2-K antibody (cisbio, 61FG2KLA) were diluted with an antibody dilution buffer (50 mmol/L Tris, 150 mmol/L NaCl, 800 mmol/L KF, pH 7.4) to adjust the final concentration to 1.4 μg/mL to prepare an antibody mixture. The prepared antibody mixture was added to the above plate in 10 μL/well, and the plate was covered with a lid and incubated at 4° C. for 17 to 24 hours. After the incubation, the signal was detected with RUBYstar (BMG LABTECH).
For orientation: In TR-FRET formats the signal depends on donor and acceptor labels being close together.

Data set [2] relates to RS4; 11 cells. The data set is described as follows: Test 2: inhibition of cell proliferation, RS4;11. It is filed as cell-based. Conditions: for IC50: Homo sapiens, 168 h, RS4;11 cells, 7 days, PrestoBlue cell viability; for cell proliferation inhibition activity, good (in words) / cell proliferation inhibitory activity, potent (in words): summary of Test 2 table, RS4;11 and MOLM-13. As for the experimental part:
(§1) Test 2: Test for Evaluating the Inhibition of Cell Proliferation
(§2) RS4; 11 cells were obtained from American Type Culture Collection (ATCC). The cells were cultured at 37° C. in the presence of 5% CO2 in RPMI 1640 medium containing 10% fetal bovine serum and 1% penicillin/streptomycin. MOLM-13 cells were separately obtained from DSMZ (Deutsche Sammlung von Mikroorganismen und Zellkulturen GmbH). The cells were cultured at 37° C. in the presence of 5% CO2 in RPMI 1640 medium containing […] and 1% penicillin/streptomycin.
(§3) The cells were plated to a 96-well plate in 2000 cells/well, each test compound was added thereto to adjust the final concentration of DMSO to 0.1% of DMSO, and the cells were cultured for 7 days. After the cultivation, the cell viability was calculated with PrestoBlue™ Cell Viability Reagent (Invitrogen, A13261). The IC50 value was calculated from a survival curve, that corresponds to the concentration of the test compound at which the cell proliferation inhibition rate is 50%.

The test system of data set [3] is MOLM-13 cells. In words: Test 2: inhibition of cell proliferation, MOLM-13. It is filed as cell-based. Conditions: Homo sapiens, 168 h, 7 days, PrestoBlue cell viability. On the procedure:
as §1, §2, §3

The test system of data set [4] is MEIS1. The data set is described as follows: Test 3: inhibition of mRNA transcription, MEIS1 in MV4;11 cells. It counts as cell-based. Conditions: for mRNA at 1 μM (% control) MEIS1: MV4;11 cells, 20 to 24 hours, fitted with GAPDH; for mRNA transcription inhibition activity (in words): summary of Test 3 table, MEIS1 and HOXA9, MV4;11 cells, 1 μM. On the procedure:
(§4) Test 3: Test for the Inhibition of mRNA Transcription with Test Compounds
(§5) MV4; 11 cells were obtained from American Type Culture Collection (ATCC). The cells were cultured at 37° C. in the presence of 5% CO2 in RPMI 1640 medium containing 10% fetal bovine serum and 1% penicillin/streptomycin. To the MV4; 11 cells was added each test compound to adjust the final concentration to 1 μmol/L, and the cells were cultured at 37° C. in the presence of 5% CO2 for 20 to 24 hours. After the incubation, the total RNA was extracted from the cells with RNeasy™ Mini Kit (QIAGEN, 74106), and CDNA was synthesized with Superscript™ VILO™ CDNA Synthesis Kit (Invitrogen, #11754250). By using TaqMan™ Gene Expression Master Mix (Applied Biosystems, 4369016) and TaqMan™ probe (Applied Biosystems), the expression level of mRNA was quantified from the obtained cDNA with 7900HT (Applied Biosystems). The mRNA expression level of each obtained gene was fitted with the expression level of mRNA of GAPDH.

The test system of data set [5] is HOXA9. In words: Test 3: inhibition of mRNA transcription, HOXA9 in MV4;11 cells. It is filed as cell-based. Conditions: 20 to 24 hours, fitted with GAPDH. On the procedure: as §4, §5
Data set [6] in a line: Test 4: pharmacokinetic study, oral, mouse. The following applies: for AUC(0-t): male, NOD.CB17-Prkdcscid/J, plasma, po, 100 mg/kg; for compound-exposure in plasma (in words): summary of Test 4 table, oral 100 mg/kg.
Procedure: Test 4: Pharmacokinetic Study
(§6) The test compound suspended in 0.5% methylcellulose was orally administered to 7-week-old male NOD. CB17-Prkdcscid/J mouse in a dose of 100 mg/kg. The blood sample was taken from jugular vein without anesthesia over time for 24 hours. The blood sample was centrifuged to obtain plasma. The plasma was pre-treated by methanol extraction method, and then analyzed with an LC-MS/MS to determine the concentration of the test compound. Based on the data from 0 hour after the administration until the time (t) when there was the final detection in the plasma, AUC was calculated by trapezoidal method.
The conditions of data set [7]: mouse, in vivo, po, 100 mg/kg.
Procedure: Test 4: Pharmacokinetic Study
as §6

In general, IC50 refers to the concentration that inhibits the measured activity by half. One may read the AUC(0-t) as the area under the concentration-time curve up to a stated or last time point. A high value points to high exposure. On to `O=C([C@H]1N[C@H]2CC[C@@H]1C[C@@H]2CC1CC1)N1CC2(C1)CN(c1c(C(F)(F)F)cnc3sc(CC(F)(F)F)cc13)C2` [Example 1, [(1S,3S,4R,6S)-6-(Cyclopropylmethyl)-2-azabicyclo[2.2.2]octan-3-yl]{6-[2-(2,2,2-trifluoroethyl)-5-(trifluoromethyl)thieno[2,3-b]pyridin-4-yl]-2,6-diazaspiro[3.3]heptan-2-yl}methanone], for which, in data set [1], the IC50 came out at 36.5 nM and the “menin-MLL binding inhibition activity (in words)” value is listed as “potent menin-MLL binding inhibition activity”. In data set [2], the IC50 came out at 90 nM; the “cell proliferation inhibition activity, good (in words)” value (from here on “cell proliferation inhibition activity”) is recorded as “good cell proliferation inhibition activity”; the “cell proliferation inhibitory activity, potent (in words)” value (shortened to “cell proliferation inhibitory activity”) is “potent cell proliferation inhibitory activity”. This compound returned an IC50 in data set [3] of 280 nM. Further, in data set [4], the “mRNA at 1 μM (% control) MEIS1” value is recorded as 31.8 % control and the “mRNA transcription inhibition activity (in words)” value was “mRNA transcription inhibition activity”. Moreover, in data set [5], the “mRNA at 1 μM (% control) HOXA9” value is 55.0 % control. In data set [6], the AUC(0-t) came to 10300 ng·h/mL and the “compound-exposure in plasma (in words)” value was “good compound-exposure in plasma”.
Take `O=C([C@H]1N[C@H]2CC[C@@H]1[C@H](F)[C@@H]2CC1CC1)N1CC2(C1)CN(c1c(C(F)(F)F)cnc3sc(CC(F)(F)F)cc13)C2` [Example 11, [(1S,3S,4S,5R,6R)-6-(cyclopropylmethyl)-5-fluoro-2-azabicyclo[2.2.2]octan-3-yl]{6-[2-(2,2,2-trifluoroethyl)-5-(trifluoromethyl)thieno[2,3-b]pyridin-4-yl]-2,6-diazaspiro[3.3]heptan-2-yl}methanone]: in data set [1], the half-maximal inhibitory concentration (IC50) was found to be 18.8 nM and the “menin-MLL binding inhibition activity (in words)” value is “potent menin-MLL binding inhibition activity”. Further, in data set [2], the IC50 turned out to be 80 nM; the “cell proliferation inhibition activity” value is reported as “good cell proliferation inhibition activity”; the “cell proliferation inhibitory activity” value is recorded as “potent cell proliferation inhibitory activity”. Further, the IC50 in data set [3] stood at 150 nM. Further, in data set [4], the “mRNA at 1 μM (% control) MEIS1” value is listed as 20.6 % control and the “mRNA transcription inhibition activity (in words)” value is recorded as “mRNA transcription inhibition activity”. In addition, the “mRNA at 1 μM (% control) HOXA9” value in data set [5] is listed as 45.0 % control. In data set [6], the AUC(0-t) was 6740 ng·h/mL and the “compound-exposure in plasma (in words)” value was “good compound-exposure in plasma”.
Take `N#Cc1cnc2sc(CC(F)(F)F)cc2c1N1CC2(CN(C(=O)[C@H]3N[C@H]4CC[C@@H]3[C@H](F)[C@@H]4CC3CC3)C2)C1` [Example 12, 4-{6-[(1S,3S,4S,5R,6R)-6-(cyclopropylmethyl)-5-fluoro-2-azabicyclo[2.2.2]octane-3-carbonyl]-2,6-diazaspiro[3.3]heptan-2-yl}-2-(2,2,2-trifluoroethyl)thieno[2,3-b]pyridine-5-carbonitrile]: the IC50 in data set [1] turned out to be 7.3 nM; in data set [2], 60 nM; in data set [3], 90 nM. Further, in data set [4], the “mRNA at 1 μM (% control) MEIS1” value is 18.4 % control. Moreover, in data set [5], the “mRNA at 1 μM (% control) HOXA9” value was found to be 42.6 % control. In data set [6], this compound registered an AUC(0-t) of 8970 ng·h/mL. Moreover, the “compound-exposure in plasma (in words)” value in data set [6] is reported as “good compound-exposure in plasma”.
As to `[2H]C([2H])=C1C[C@@H]2CC[C@H]1[C@@H](C(=O)N1CCC3(CC1)CN(c1c(C(F)(F)F)cnc4sc(CC(F)(F)F)cc14)C3)N2` [Example 21, [(1S,3S,4R)-5-(^2H2)methylidene-2-azabicyclo[2.2.2]octan-3-yl]{2-[2-(2,2,2-trifluoroethyl)-5-(trifluoromethyl)thieno[2,3-b]pyridin-4-yl]-2,7-diazaspiro[3.5]nonan-7-yl}methanone], in data set [2], the “cell proliferation inhibition activity” value is listed as “good cell proliferation inhibition activity” and the “cell proliferation inhibitory activity” value is listed as “potent cell proliferation inhibitory activity”. Moreover, in data set [7], the AUC(0-t) came out at 24300 ng·h/mL and the “compound-exposure in plasma (in words)” value was “good compound-exposure in plasma”.
Turning to `[2H]C([2H])=C1C[C@@H]2CC[C@H]1[C@@H](C(=O)N1CCC3(CC1)CN(c1c(C#N)cnc4sc(CC(F)(F)F)cc14)C3)N2` [Example 24, 4-{7-[(1S,3S,4R)-5-(^2H2)methylidene-2-azabicyclo[2.2.2]octane-3-carbonyl]-2,7-diazaspiro[3.5]nonan-2-yl}-2-(2,2,2-trifluoroethyl)thieno[2,3-b]pyridine-5-carbonitrile], in data set [2], the “cell proliferation inhibition activity” value is recorded as “good cell proliferation inhibition activity” and the “cell proliferation inhibitory activity” value was “potent cell proliferation inhibitory activity”. Moreover, in data set [7], the exposure AUC(0-t) turned out to be 6970 ng·h/mL and the “compound-exposure in plasma (in words)” value was “good compound-exposure in plasma”.
